Measured values published in BindingDB's records for doi:10.1016/j.bmcl.2004.01.021 (Atherogenics, 2004).

Each compound was assayed against T1, Tumor necrosis factor receptor superfamily member 1A (Homo sapiens, UniProt P19438) (assay: ChEBML_224214).
T1 sequence (P19438 whole entry): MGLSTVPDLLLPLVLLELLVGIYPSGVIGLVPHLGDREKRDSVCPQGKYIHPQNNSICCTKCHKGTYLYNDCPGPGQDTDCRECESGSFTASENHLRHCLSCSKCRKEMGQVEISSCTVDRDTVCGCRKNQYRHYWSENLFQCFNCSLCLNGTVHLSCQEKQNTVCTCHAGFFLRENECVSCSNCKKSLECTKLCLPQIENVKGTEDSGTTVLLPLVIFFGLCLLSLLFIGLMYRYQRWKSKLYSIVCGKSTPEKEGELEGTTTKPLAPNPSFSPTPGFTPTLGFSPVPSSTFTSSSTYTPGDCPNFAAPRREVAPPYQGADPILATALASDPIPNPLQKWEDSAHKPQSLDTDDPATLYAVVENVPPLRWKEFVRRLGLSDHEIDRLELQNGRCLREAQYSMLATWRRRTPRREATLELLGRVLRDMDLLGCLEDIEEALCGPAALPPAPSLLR
Text: Inhibition of TNF-alpha-induced VCAM-1 expression
Compound COc1cc(OC)c(-c2cc3ccccc3s2)cc1/C=C/C(=O)c1cc(OC)c(OC)c(OC)c1 [(E)-3-(5-Benzo[b]thiophen-2-yl-2,4-dimethoxy-phenyl)-1-(3,4,5-trimethoxy-phenyl)-propenone] has an IC50 of 5 µM.
Compound COc1cc(OC)c(-c2cc3ccccc3s2)cc1/C=C/C(=O)c1ccc(OC)c(OC)c1 [(E)-3-(5-Benzo[b]thiophen-2-yl-2,4-dimethoxy-phenyl)-1-(3,4-dimethoxy-phenyl)-propenone] has an IC50 of 11 µM.
In the case of COc1cc(OC)c(-c2cc3ccccc3s2)cc1/C=C/C(=O)c1cc(OC)c(OCC2CC2)c(OC)c1 [(E)-3-(5-Benzo[b]thiophen-2-yl-2,4-dimethoxy-phenyl)-1-(4-cyclopropylmethoxy-3,5-dimethoxy-phenyl)-propenone], the IC50 is reported as over 50 µM.
COc1cc(OC)c(-c2cc3ccccc3s2)cc1/C=C/C(=O)c1cc(OC)c(O)c(OC)c1 [(E)-3-(5-Benzo[b]thiophen-2-yl-2,4-dimethoxy-phenyl)-1-(4-hydroxy-3,5-dimethoxy-phenyl)-propenone] was tested, and the IC50 was 1 µM.
In the case of COc1cc(OC)c(-c2cc3ccccc3s2)cc1/C=C/C(=O)c1ccc(NC2OC(CO)C(O)C(O)C2O)cc1 (stereo not drawn) [(E)-3-(5-Benzo[b]thiophen-2-yl-2,4-dimethoxy-phenyl)-1-[4-(3,4,5-trihydroxy-6-hydroxymethyl-tetrahydro-pyran-2-ylamino)-phenyl]-propenone], the IC50 is reported as 17 µM.
With COc1ccc(-c2cc3ccccc3s2)cc1/C=C/C(=O)c1cc(OC)c(OC)c(OC)c1 [(E)-3-(5-Benzo[b]thiophen-2-yl-2-methoxy-phenyl)-1-(3,4,5-trimethoxy-phenyl)-propenone] the IC50 was 2 µM.
For COc1ccc(-c2cc3ccccc3s2)cc1/C=C/C(=O)c1ccc(OC)c(OC)c1 [(E)-3-(5-Benzo[b]thiophen-2-yl-2-methoxy-phenyl)-1-(3,4-dimethoxy-phenyl)-propenone], the IC50 was 2 µM.
COc1ccc(C(=O)/C=C/c2cc(-c3cc4ccccc4s3)ccc2OC)cc1 [(E)-3-(5-Benzo[b]thiophen-2-yl-2-methoxy-phenyl)-1-(4-methoxy-phenyl)-propenone] gave an IC50 of 3 µM.
With COc1cc(OC)c(/C=C/C(=O)c2cc(OC)c(OC)c(OC)c2)cc1Br [(E)-3-(5-Bromo-2,4-dimethoxy-phenyl)-1-(3,4,5-trimethoxy-phenyl)-propenone] the IC50 was 2 µM.
With COc1ccc(Br)cc1/C=C/C(=O)c1cc(OC)c(OC)c(OC)c1 [(E)-3-(5-Bromo-2-methoxy-phenyl)-1-(3,4,5-trimethoxy-phenyl)-propenone] the IC50 was 1 µM.
Work on COc1ccc(-c2cc(C)cs2)cc1/C=C/C(=O)c1cc(OC)c(OC)c(OC)c1 [(E)-3-[2-Methoxy-5-(4-methyl-thiophen-2-yl)-phenyl]-1-(3,4,5-trimethoxy-phenyl)-propenone] yielded an IC50 of 2 µM.
For COc1ccc(-c2ccc(C)s2)cc1/C=C/C(=O)c1cc(OC)c(OC)c(OC)c1 [(E)-3-[2-Methoxy-5-(5-methyl-thiophen-2-yl)-phenyl]-1-(3,4,5-trimethoxy-phenyl)-propenone], the IC50 was 2 µM.
COc1cc(C(=O)C=Cc2cc(OC)c(OC)c(-c3ccc(C(C)=O)s3)c2)cc(OC)c1OC [(E)-3-[3-(5-Acetyl-thiophen-2-yl)-4,5-dimethoxy-phenyl]-1-(3,4,5-trimethoxy-phenyl)-propenone] was tested, and the IC50 was 3 µM.
In the case of O=C(/C=C/c1ccccc1)c1ccccc1 [Chalcone, 13], the IC50 is reported as 23 µM.
Work on COc1cc(OCC(=O)O)c(/C=C/C(=O)c2ccccc2)cc1-c1cc2ccccc2s1 [[4-Benzo[b]thiophen-2-yl-5-methoxy-2-((E)-3-oxo-3-phenyl-propenyl)-phenoxy]-acetic acid] yielded an IC50 of 1 µM.
COc1ccc(-c2cccs2)cc1/C=C/C(=O)c1cc(OC)c(OCC(=O)O)c(OC)c1 [{2,6-Dimethoxy-4-[(E)-3-(2-methoxy-5-thiophen-2-yl-phenyl)-acryloyl]-phenoxy}-acetic acid] was tested, and the IC50 was 1 µM.
COc1cc(C(=O)/C=C/c2cc(OC)c(OC)c(-c3cccs3)c2)cc(OC)c1OCC(=O)O [{4-[(E)-3-(3,4-Dimethoxy-5-thiophen-2-yl-phenyl)-acryloyl]-2,6-dimethoxy-phenoxy}-acetic acid] was tested, and the IC50 was 1 µM.
For COc1cc(OC)c(-c2cc3ccccc3s2)cc1/C=C/C(=O)c1ccc(SCC(=O)O)cc1 [{4-[(E)-3-(5-Benzo[b]thiophen-2-yl-2,4-dimethoxy-phenyl)-acryloyl]-phenylsulfanyl}-acetic acid], the IC50 was 1 µM.
